From patent US5942493A, “LH-RH antagonists having improved action” (ASTA Medica Aktiengesellschaft, priority 1995, dated 1999)
Read-outs that look alike come from different tables or passages of the source. *1 amine or outer side, *2 acyl side, *3 side chain or, on linkers, in order; H or OH if unused. Where a SMILES comes first, the peptide text is derived from it. Side-chain parts run from the residue outwards. [ ]: non-standard residue; d: D form. The star is where a group is joined. NH(4-amidinophenyl) = N=C(N)c1ccc(N*)cc1; dPhe(4-Cl) = N[C@H](Cc1ccc(Cl)cc1)C(=O)O; d2Nal = N[C@H](Cc1ccc2ccccc2c1)C(=O)O; dCit = NC(=O)NCCC[C@@H](N)C(=O)O; d3Pal = N[C@H](Cc1cccnc1)C(=O)O; Suc = O=C(CCC(=O)[*:2])[*:1]

Legend:
[1] = tested on: histamine release; assay: Histamine release in vitro
[2] = target: T1, human LH-RH receptor (Homo sapiens, UniProt P30968); assay: Competitive binding test (displacement of [125I] Cetrorelix) on cell clone L3.5/78
T1 construct: expressed in transfected cells
T1 sequence (P30968 1-328): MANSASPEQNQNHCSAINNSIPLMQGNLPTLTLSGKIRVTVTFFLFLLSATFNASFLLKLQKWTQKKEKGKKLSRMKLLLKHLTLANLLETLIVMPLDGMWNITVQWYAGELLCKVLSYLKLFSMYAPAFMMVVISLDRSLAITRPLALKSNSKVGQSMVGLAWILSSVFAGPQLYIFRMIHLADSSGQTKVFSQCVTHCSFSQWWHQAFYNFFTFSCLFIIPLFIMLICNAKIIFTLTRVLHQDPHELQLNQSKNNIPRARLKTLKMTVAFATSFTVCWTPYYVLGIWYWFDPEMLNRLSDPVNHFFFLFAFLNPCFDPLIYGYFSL
Experimental: Method for the determination of the binding affinity (dissociation constant Kd):
The binding affinity was determined by a competitive binding test ("displacement binding experiment"; Beckers et al. Eur. J. Biochem. 231, 535-543, 1995). The radiolabelled ligand used is [^125 I] Cetrorelix (specific activity 5-10×10^5 dpm/pmol; dissolved in 20% v:v acetonitrile, 0.2% w:v albumin, 0.1% w:v TFA, ~80% v:v aqua). The binding ability of the iodinated peptide is between 60% and 85%. The non-labelled test compounds used are Cetrorelix, Example 1, Example 2 and […] in solution. The substances are employed in concentrations of 0.01 nM-1000 nM (Cetrorelix, Example 1, Example 2) or 0.01 μM-10 μM (Example 56).
The cells of the individual cell clone L3.5/78 verexpressing the human LH-RH receptor which are used for the binding test are removed with PBS/EDTA (PBS without Ca^2+ /Mg^2+ /1 mM EDTA) from a cell culture dish grown under non-confluent conditions, the cell count is determined and the cells are resuspended in incubation medium (Dulbecco's modified Eagle Medium with 4.5 g/l glucose, 10 mM Hepes pH 7.5, 0.5% w:v BSA, 1 g/l bacitracin, 0.1 g/l SBTI, 0.1% w:v NaN3) at a corresponding cell density. 200 μl of silicone/paraffin oil mixture (84/16% by volume) are initially introduced into special 400 μl reaction vessels (Renner, Beckman type) and 50 μl of the cell suspension (2.5×10^5 cells) are pipetted onto it. 50 μl of binding medium containing [^125 I] Cetrorelix and the compound to be tested at the appropriate concentration are added to the cell suspension on the silicone/paraffin oil layer. The mixture is then incubated with rotation for 60 min at 37° C. in a warm cabinet. After this step, it is centrifuged at 9000 rpm (room temperature) for 2 min in the Heraeus Biofuge 15 in the HTA 13.8 rotor. In the course of this, the cells pelletize through the silicone/paraffin oil layer and are thus separated from the binding medium. After centrifugation, the reaction vessels are shock-frozen in liquid N2 and the tip of the reaction vessel (cell pellet) is cut off with a pair of pincers and the tip containing the cell pellet (bound ligand [^125 I] Cetrorelix) and the supernatant (unbound, free ligand [^125 I] Cetrorelix) are transferred to counting tubes. To determine the maximum binding (Bo), no competitor is added. For the determination of non-specific binding, 1 μM unlabelled Cetrorelix is added for competition. At ≤10% of the total binding Bo, the non-specific binding is low. Quantification is carried out in a γ-counter; analysis is carried out using the EBDA/ligand V3.0 programme (McPherson, J. Pharmacol. Methods 14, 213-228, 1985). Plotting in the dose-response graph makes possible the estimation of the IC50 (concentration which causes 50% inhibition of the reaction at the receptor) and the EBDA/ligand programme calculates the dissociation constant Kd [nM] from this.

[3] = Water solubility; format: physicochemical
[4] = tested on: testosterone in the blood; assay: Hormone-suppressive action: testosterone suppression in the healthy male rat; format: in vivo
Experimental: To determine the suppression of testosterone in the blood of healthy male rats, the substance was injected subcutaneously into the right flank of the animals. The dosage was 1.5 mg/kg in the case of Example 1 and Example 2 and 10 mg/kg in the case of Example 56. To check the testosterone values, about 300 μl of blood were taken from the animals from the sublingual vein at the times 0, 2, 4, 8 (only Example 56), 24, 48, 72 and 96 hours, and then every 3 days until the end of suppression. […] Example 56 (10 mg/kg s.c.) suppressed the testosterone level in all 5 animals even after 2 hours and maintained this action for up to 8 hours. At the next measuring point (24 h), the testosterone values rose again (FIG. 6).

[5] = target: T1, human LH-RH receptor; assay: Functional assay: inhibition of LH-RH-stimulated IP3 formation in cell clone L 3.5/78; format: cell-based; conditions: for IC50: stimulation with 10 nM LH-RH, estimated from dose-response curve
Experimental: Method for the determination of IP3 (D-myo-[…]): a subconfluent culture of the cell clone (L 3.5/78) overexpressing the human LH-RH receptor is washed 1× with PBS, the cells are removed with PBS/EDTA and the cell suspension is pelletted. The cells are resuspended in incubation medium (Dulbecco's modified Eagle Medium with 4.5 g/l of glucose, 10 mM Hepes pH 7.5, 0.5% w:v BSA, 5 mM of LiCl, 1 g/l of bacitracin, 0.1 g/l of SBTI), aliquoted into 1.5 ml reaction vessels and preincubated at 37° C. for 30 min. 4×10^6 cells in a 500 μl volume are needed per measuring point. After the preincubation step, LH-RH (stock solution 0.5 mM in 10 mM tris pH 7.5, 1 mM dithiothreitol, 0.1% w:v BSA/Bachem Art # H4005) are added to the cell suspension at a final concentration of 10 nM. The action of an antagonist is tested by simultaneous addition at the corresponding concentration (for example 0.0316, 0.1, 0.316 etc. up to 100 nM for Example 2). As a negative control, cells without added LH-RH are incubated. After incubation at 37° C. for 15 min, IP3 formed is isolated from the cells by means of trichloroacetic acid (TCA) extraction. To this end, 500 μl of ice-cold 15% (w:v) TCA solution are added to the cell suspension. The resulting precipitate is pelletted by centrifugation at […] in the Heraeus Biofuge 15R centrifuge at 2000×g for 15 min. The supernatant of 950 μl is extracted 3× with 10 vol of cold, water-saturated diethyl ether in a 15 ml vessel standing on ice. After the last extraction step, the solution is adjusted to a pH of 7.5 with 0.5 M NaHCO3 solution.
The determination of the IP3 concentration in the cell extracts is carried out by means of a sensitive competitive binding test using an IP3 binding protein, labelled [^3 H]-IP3 and unlabelled IP3. To this end, an assay kit from Amersham (TRK 1000) is used; the determination is carried out as described in the assay protocol. After carrying out the various steps, 2 ml of scintillator for aqueous samples (Rotiszint Ecoplus) is finally added, the resuspended pellet containing the bound [^3 H]-IP3 is carefully mixed with it, and measured in a β-scintillation counter. The amount of cellular IP3 is calculated using a standard curve and a dose-response curve is set up. The IC50 can be estimated from the inflection point of this curve.

[6] = [125I] Cetrorelix as ligand, single curves of FIG. 1, read-out: binding affinity as the dissociation constant Kd (competition curves of FIG. 1)
[7] = mean values from various experiments, number of experiments in brackets, read-out: Affinity human LH-RH receptor (dissociation constant Kd)
[8] = 10 mg/kg s.c., healthy male rats, all 5 animals

| Structure (SMILES) | (IC50) Histamine releage [1] | Kd [2, 6] | Kd [2, 7] | H2O Solubility [3] | IC50 [5] | other results |
| --- | --- | --- | --- | --- | --- | --- |
| CC(=O)N[C@H](Cc1ccc2ccccc2c1)C(=O)N[C@H](Cc1ccc(Cl)cc1)C(=O)N[C@H](Cc1cccnc1)C(=O)N[C@@H](CO)C(=O)N[C@@H](Cc1ccc(O)cc1)C(=O)N[C@H](CCCCNC(=O)C1CNC(=O)N1)C(=O)N[C@@H](CC(C)C)C(=O)N[C@@H](CCCNC(=N)N)C(=O)N1CCC[C@H]1C(=O)N[C@H](C)C(N)=O (single isomer, unassigned) [Example 1, Ac-D-Nal(2)-D(pCl)Phe-D-Pal(3)-Ser-Tyr-D-[ε-N'-(imidazolidin-2-on-4-yl)formyl]-Lys-Leu-Arg-Pro-D-Ala-NH2] | 31.9 µg/mL | 0.305 nM | 0.306 nM | 27 mg/mL |  |  |
| CC(=O)N[C@H](Cc1ccc2ccccc2c1)C(=O)N[C@H](Cc1ccc(Cl)cc1)C(=O)N[C@H](Cc1cccnc1)C(=O)N[C@@H](CO)C(=O)N[C@@H](Cc1ccc(O)cc1)C(=O)N[C@H](CCCNC(N)=O)C(=O)N[C@@H](CC(C)C)C(=O)N[C@@H](CCCNC(=N)N)C(=O)N1CCC[C@H]1C(=O)N[C@H](C)C(N)=O [Cetrorelix, Ac-D-Nal(2)-D-p-Cl-Phe-D-Pal(3)-Ser-Tyr-D-Cit-Leu-Arg-Pro-D-Ala-NH2, reference compound] (Ac-[d2Nal][dPhe(4-Cl)][d3Pal]SY[dCit]LRP[dA]-NH2) | 9.7 µg/mL | 0.214 nM | 0.202 nM | 9 mg/mL |  | (1.5 mg/kg, single dose) testosterone suppression rats ([4]; 1.5 mg/kg, single dose, rats): 144 h |
| CC(=O)N[C@H](Cc1ccc2ccccc2c1)C(=O)N[C@H](Cc1ccc(Cl)cc1)C(=O)N[C@H](Cc1cccnc1)C(=O)N[C@@H](CO)C(=O)N[C@@H](Cc1ccc(O)cc1)C(=O)N[C@H](CCCCNC(=O)CCC(=O)Nc1ccc(C(=N)N)cc1)C(=O)N[C@@H](CC(C)C)C(=O)N[C@@H](CCCNC(=N)N)C(=O)N1CCC[C@H]1C(=O)N[C@H](C)C(N)=O [Example 2, Ac-D-Nal(2)-D(pCl)Phe-D-Pal(3)-Ser-Tyr-D-[ε-N'-4-(4-amidinophenyl)amino-1,4-dioxobutyl]-Lys-Leu-Arg-Pro-D-Ala-NH2] (Ac-[d2Nal][dPhe(4-Cl)][d3Pal]SY[dK]([Suc-NH(4-amidinophenyl)])LRP[dA]-NH2) | 17.1 µg/mL | 0.104 nM |  | 23 mg/mL | ~0.4 nM | Kd ([2]; quoted in Example 84, read-out: in vitro binding affinity Kd, competitive binding test using [125I]-Cetrorelix): 0.109 nM |

Continued, in another order:

| (IC50) Histamine releage [1] | Kd [2, 6] | Kd [2, 7] | H2O Solubility [3] | IC50 [5] | Structure (SMILES) | other results |
| --- | --- | --- | --- | --- | --- | --- |
|  |  | 0.17 nM |  |  | CC(=O)N[C@H](Cc1ccc2ccccc2c1)C(=O)N[C@H](Cc1ccc(Cl)cc1)C(=O)N[C@H](Cc1cccnc1)C(=O)N[C@@H](CO)C(=O)N[C@@H](Cc1ccc(O)cc1)C(=O)N[C@H](CCCCNC(=O)C1CNC(=O)N1)C(=O)N[C@@H](CC(C)C)C(=O)N[C@@H](CCCNC(=N)N)C(=O)N1CCC[C@H]1C(=O)N[C@H](C)C(N)=O (single isomer, unassigned) [Example 3] |  |
|  |  | 0.206 nM |  |  | CC(=O)N[C@H](Cc1ccc2ccccc2c1)C(=O)N[C@H](Cc1ccc(Cl)cc1)C(=O)N[C@H](Cc1cccnc1)C(=O)N[C@@H](CO)C(=O)N[C@@H](Cc1ccc(O)cc1)C(=O)N[C@H](CCCCNC(=O)CCC(=O)Nc1ccc(C(=N)N)cc1)C(=O)N[C@@H](CC(C)C)C(=O)N[C@@H](CCCNC(=N)N)C(=O)N1CCC[C@H]1C(=O)N[C@H](C)C(N)=O [Example 4] (Ac-[d2Nal][dPhe(4-Cl)][d3Pal]SY[dK]([Suc-NH(4-amidinophenyl)])LRP[dA]-NH2) |  |
|  |  | 1080 nM |  | ~4000 nM | N=C(N)c1ccc(NC(=O)CCC(=O)NCCCCC(NC(=O)OCc2ccccc2)C(N)=O)cc1.O=C(O)C(F)(F)F (stereo not shown) [Example 56] | duration of testosterone suppression [4, 8]: up to 8 hours; time at which testosterone level was already suppressed [4, 8]: 2 h; functional character at the LH-RH receptor ([5]; 10 nM LH-RH, IP3 formation): functional antagonists of LH-RH; agonistic activity (stimulation of IP3 synthesis by the substance itself) ([5]; without LH-RH): not possible to determine any agonistic activity |
